The values that follow come from paper PMC5769417, “Single- and Multiple-Dose Trials to Determine the Pharmacokinetics, Safety, Tolerability, and Sex Effect of Oral Ginsenoside Compound K in Healthy Chinese Volunteers” (Frontiers in Pharmacology, 2018).

Structures are written as SMILES. Where “and” joins values, the source holds several entries; their conditions need not be identical. Equal entries are not always repeated.

The nature of series [1]: Single-dose trial, cumulative urine excretion. Particulars: fasting, urine 0–48 h. The series is classed as in vivo, human. On the procedure: Single-dose pharmacokinetics: In the 25 and 50 mg dose groups, serial blood samples were collected at pre-dose (t = 0) and at 0.25, 0.5, 1, 1.5, 2, 2.5, 3, 3.5, 4, 5, 6, 8, 12, 24, 36, and 48 h post-dose. From the 100 to 800 mg dose groups, blood samples were additionally collected at 72 and 96 h post-dose. Plasma was separated from whole blood by refrigerated centrifugation (3,000 rpm, 10 min), within 1 h after sampling, transferred to labeled storage tubes, and stored at −70°C prior to workup and analysis. Urine samples were collected at different time periods: 0–2, 2–4, 4–6, 6–8, 8–10, 10–12, 12–24, and 24–48 h post-dose and the volume was measured immediately after collection from each subject. We preserved 8 ml specimens into 10 ml centrifuge tubes and stored at −70°C for PK assessment.
The processing method of the urine samples was similar to the method used for the plasma samples. For CK, the only difference was in the mobile phase (acetonitrile: 10 mM aqueous ammonium acetate = 50:50, V/V, for plasma samples; acetonitrile: 20 mM aqueous ammonium acetate = 60:40, V/V, for urine samples; acetonitrile, Merck KGaA, Darmstadt, Germany; ammonium acetate, CNW technologies GmbH, Duesseldorf, Germany). As for 20(S)-PPD, neither the IS nor the mobile phase were the same (IS: coumarin for plasma samples and finasteride for urine samples; mobile phase was acetonitrile: 10 mM aqueous ammonium acetate = 50: 50, V/V, for plasma samples, and acetonitrile: 0.1% formic acid aqueous solution = 50: 50, V/V, for urine samples). The calibration curve range for CK was linear from 1.00 to 1002.0 ng·ml^−1 with a correlation coefficient equal to 0.9984, and from 0.15 to 54.30 ng·ml^−1 with a correlation coefficient equal to 0.9978 for 20(S)-PPD. Three levels of QC samples (2.00, 50.10, or 801.60 ng.ml^−1 CK) were prepared in urine for testing accuracy and coefficient of variations (CVs), and the values were 94–103% and 1.06–6.54%, respectively.
Experimental observations provided the plasma CK and 20(S)-PPD concentrations vs. the time data after single-dose administration, including maximum plasma concentration (Cmax) and the time to maximum plasm concentration (Tmax). The area under the curve (AUC) from time zero to the last time point (AUClast) and the AUC extrapolated to infinity (AUCinf) were calculated using the linear trapezoidal rule. The slope (elimination rate constant, K) of the terminal phase of the plasma concentration-time profile was determined, using a weighting factor of 1, by the method of least squares (log-linear regression of at least three data points). The t1/2 was estimated as (ln2)/K. The apparent plasma clearance of the drug after oral administration (CL/F) was expressed as a function of bioavailability (F) and calculated as the dose divided by AUCinf, assuming that the complete systemic bioavailability F = 1. The apparent volume of distribution (V/F) was equal to (CL/F)/K. The mean residence time (MRT) was calculated as the area under the first moments curve (AUMC) divided by AUC. The dose-normalized PK parameters e.g., Cmax/D and AUClast/D, were obtained by dividing each PK result by the administered dose. The cumulative excretion rate was calculated as the amount of unchanged drug in the urine over a time interval divided by the dose and was expressed as thousand points (‰).

The next series deals with CYP3A4. Details: method as in Xiao et al., 2016. Particulars: human liver microsomes, human recombinant CYPs; ref Xiao et al., 2016; cited from earlier work.

With `CC(C)=CCC[C@](C)(OC1O[C@H](CO)[C@@H](O)[C@H](O)[C@H]1O)[C@H]1CC[C@]2(C)[C@@H]1[C@H](O)C[C@@H]1[C@@]3(C)CC[C@H](O)C(C)(C)[C@@H]3CC[C@]12C` (stereo partly drawn) [CK, 20-O-beta-D-glucopyranosyl-20(S)-protopanaxadiol], the “Ae, accumulative urine excretion rate” value in series [1] (25 mg oral) was 0.41 ± 0.29 ‰; in series [1] (50 mg oral), 0.46 ‰ and 0.46 ± 0.34 ‰; in series [1] (100 mg oral) it was 0.25 ± 0.13 ‰; in series [1] (200 mg oral), 0.27 ± 0.15 ‰; in series [1] (400 mg oral), 0.19 ± 0.13 ‰; in series [1] (600 mg oral), 0.10 ‰ and 0.10 ± 0.08 ‰. The “Ae, accumulative urine excretion rate” value in series [1] (800 mg oral) is 0.10 ‰ and 0.10 ± 0.04 ‰. In the series with CYP3A4, the “inhibition of CYP3A4” value is on record as “moderate inhibitor”. The “substrate of CYP3A4” value with CYP3A4 is “substrate”.
